Measurements taken from patent US20240009219A1, “COMPOSITIONS AND METHODS USING A COMBINATION OF OLEUROPEIN AND NICOTINAMIDE RIBOSIDE FOR CELLULAR ENERGY” (SOCIETE DES PRODUITS NESTLE S.A., priority 2020, published 2024).

Legend:
[1] = tested on: myotubes differentiated from C2C12 cells; experiment: Mitochondrial calcium measurement with mitochondrially targeted aequorin, caffeine stimulation; format: cell-based; conditions: NAD+-containing myotubes; Oea 10 μM, NR 0.5 mM; n=6
Method: C2C12 cells were purchased from ATCC. C2C12 cells were seeded in 96-well plates at a density of 15 000 cells per well in DMEM high glucose (Gibco)+10% fetal calf serum. Myotubes were differentiated from C2C12 cells by growing the cells in DMEM containing 2% horse serum, for 6 days. Mitochondrial calcium measurements were carried out using myotubes infected with the adenovirus (from Sirion biotech) expressing the mitochondrially targeted calcium sensor mitochondrial mutated aequorin (Montero et al., 2004). For aequorin reconstitution, 48 hours after infection, cells or myotubes were incubated for 2 h at room temperature (22±° C.) in standard medium (145 mM NaCl, 5 mM KCl, 1 mM MgCl2, 1 mM CaCl2, 10 mM glucose and 10 mM Hepes, pH 7.4) with 1 μM wild-type coelenterazine. Myotubes were stimulated with 5 mM of caffeine and the total calcium transition during stimulation was calculated as the area under the curve. […] Luminescence was measured at the Cytation 3 cell imaging reader (Biotek). Calibration of the luminescence data into Calcium concentration was carried out using an algorithm as described previously (Alvarez & Montero, 2002). Custom module analysis based on Excel (Microsoft) and GraphPad Prism 7.02 (GraphPad) software was used for quantification.

[2] = tested on: myotubes differentiated from C2C12 cells; experiment: NAD+ measurement (NAD/NADH Quantification Kit); format: cell-based; conditions: NAD+-depleted myotubes; NR 0.5 mM, Oea 10 μM; n=6
Method: C2C12 cells were purchased from ATCC. C2C12 cells were seeded in 96-well plates at a density of 15 000 cells per well in DMEM high glucose (Gibco)+10% fetal calf serum. Myotubes were differentiated from C2C12 cells by growing the cells in DMEM containing 2% horse serum, for 6 days.
To obtain a condition of restrictions of NAD bioavailability, C2C12-derived myotubes were treated with 1 μM of FK866, an NAMPT inhibitor, for 3 days before experiment. Luminescence was measured at the Cytation 3 cell imaging reader (Biotek). Calibration of the luminescence data into Calcium concentration was carried out using an algorithm as described previously (Alvarez & Montero, 2002). Custom module analysis based on Excel (Microsoft) and GraphPad Prism 7.02 (GraphPad) software was used for quantification.
NAD^+ measurements were carried out using myotubes treated as previous described and quantifying with NAD/NADH Quantification Kit (Sigma-Aldrich).

C. elegans = C. elegans lifespan test; format: in vivo, Caenorhabditis elegans; conditions: treated from day 1 of adulthood; NR 100 μM, Oae 200 μM, wild type N2 worms
Method: C. elegans lifespan tests were performed using about 100 animals per condition and scored manually every other day. The experimental measurements of the effect of nicotinamide riboside, oleuropein aglycone, and the combination NR+Oae treatment were started at day 1 of wild type N2 worm adulthood, in a regimen of chronic exposure till experiments termination.

| SMILES | integrated mitochondrial calcium rise, evoked by 5 mM caffeine [1] | NAD production [2] | mean lifespan extension (C. elegans) [%] |
| --- | --- | --- | --- |
| C/C=C1/C(O)OC=C(C(=O)OC)[C@H]1CC(=O)OCCc1ccc(O)c(O)c1 (mixture of isomers) [Oleuropein aglycone, oleuropein aglycone] | activates mitochondria via mitochondrial Ca^2+ rise | does not boosts NAD production | 10 |
| NC(=O)c1ccc[n+]([C@@H]2O[C@H](CO)[C@@H](O)[C@H]2O)c1 [Nicotinamide riboside, nicotinamide riboside] | does not boost mitochondrial Ca^2+ rise | – | 5 |
